From patent publication US20230382949A1 (HEPTARES THERAPEUTICS LIMITED, priority 2020, published 2023)
Like-named read-outs stand apart in the source and are kept apart here. Starred links: 1 amine or outer side, 2 acyl side, 3 side chain; linkers in the order of their positions; H or OH if unused. Non-standard residues stand in square brackets, D forms with d. Residues, ends and D or L forms follow the SMILES beside them. *: point of attachment. Ala(piperidin-4-yl) = O=C([C@H](CC1CCN([*:3])CC1)N[*:1])[*:2]; Malonyl(2,2-Me2,histaminyl) = CC(C)(C(=O)NCCc1cnc[nH]1)C(=O)*; Ala(1-imidazolyl) = N[C@@H](Cn1ccnc1)C(=O)O; dBip = N[C@H](Cc1ccc(-c2ccccc2)cc1)C(=O)O; Oic = O=C(O)[C@@H]1C[C@@H]2CCCC[C@@H]2N1; Phe(4-Br) = N[C@@H](Cc1ccc(Br)cc1)C(=O)O; d2Nal = N[C@H](Cc1ccc2ccccc2c1)C(=O)O; X5 = CC(C)(C(=O)NCc1c[nH]cn1)C(=O)*; hArg = N=C(N)NCCCC[C@H](N)C(=O)O; dCha = N[C@H](CC1CCCCC1)C(=O)O; Aib = CC(C)(N)C(=O)O; Bn = c1ccc(C*)cc1

Experiments:
[1] = target: T1, human Apelin receptor (Homo sapiens, UniProt P35414); test: cAMP accumulation assay (HTRF), functional agonism of human Apelin receptors; format: cell-based; conditions: for Emax: CHO
T1 sequence (P35414 1-380): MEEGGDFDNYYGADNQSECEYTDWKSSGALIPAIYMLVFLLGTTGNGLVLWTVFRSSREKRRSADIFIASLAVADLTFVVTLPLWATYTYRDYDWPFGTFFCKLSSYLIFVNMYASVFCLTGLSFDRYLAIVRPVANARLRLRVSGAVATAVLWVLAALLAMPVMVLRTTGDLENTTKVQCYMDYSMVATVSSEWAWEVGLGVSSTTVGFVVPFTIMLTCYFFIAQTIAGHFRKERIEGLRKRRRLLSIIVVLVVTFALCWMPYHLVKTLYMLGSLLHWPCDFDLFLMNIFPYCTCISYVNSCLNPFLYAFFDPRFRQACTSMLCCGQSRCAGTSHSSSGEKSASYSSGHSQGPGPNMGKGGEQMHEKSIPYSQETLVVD
Excerpt: cAMP functional assay. cAMP production was quantified using the Homogeneous Time-Resolved Fluorescence (HTRF) cAMP dynamic-2 assay (Cisbio, France).

[2] = target: T2, human Apelin receptor (Homo sapiens, UniProt P35414); test: β-arrestin accumulation assay, functional agonism of human Apelin receptors; format: cell-based
T2 construct: host or cells: CHO-K1 cells
Procedure: β-arrestin assay. […] After 16 h incubation at 37° C. media was removed and cells were incubated at 37° C. for 90 min in serum free media containing increasing concentrations of test agonist. The assay reaction was stopped by adding detection reagent (DiscoveRx) and incubation for 60 min in the dark. Levels of receptor activation were then measured on a PheraStar fluorescence plate reader (BMG LabTech) and EC50 values were determined using Graphpad Prism.
T2 sequence (P32121 whole entry partner, one chain of several): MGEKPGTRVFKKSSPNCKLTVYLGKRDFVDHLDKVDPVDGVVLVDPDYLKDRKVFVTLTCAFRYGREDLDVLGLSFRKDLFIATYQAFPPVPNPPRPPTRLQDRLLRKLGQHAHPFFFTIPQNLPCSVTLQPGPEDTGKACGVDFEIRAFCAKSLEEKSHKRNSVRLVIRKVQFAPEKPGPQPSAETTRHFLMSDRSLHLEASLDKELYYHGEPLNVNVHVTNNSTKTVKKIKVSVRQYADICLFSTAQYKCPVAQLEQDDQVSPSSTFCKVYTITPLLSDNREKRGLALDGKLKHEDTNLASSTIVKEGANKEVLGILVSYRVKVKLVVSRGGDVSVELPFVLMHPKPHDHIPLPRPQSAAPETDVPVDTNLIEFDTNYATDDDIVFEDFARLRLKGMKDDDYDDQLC

[3] = Human Apelin agonist cAMP assay, CHO cells stably expressing the human Apelin receptor, 3 uM forskolin
[4] = pEC50, Human Apelin agonist cAMP assay, CHO cells stably expressing the human Apelin receptor, 3 uM forskolin

SMILES | Emax [1, 3] | EC50 [1, 4] | EC50 [2] | Emax ([1]; read-out: Emax) | EC50 ([1]; read-out: pEC50 (converted))
CC(C)C[C@H](NC(=O)[C@@H](CCCNC(=N)N)NC(=O)[C@@H]1CCCN1C(=O)[C@H](CCCCNC(=N)N)NC(=O)[C@H](CCC(N)=O)NC(=O)[C@@H](CCCNC(=N)N)NC(=O)C(C)(C)C(=O)NCCc1c[nH]cn1)C(=O)NC(C)(C)C(=O)N[C@@H](Cc1c[nH]cn1)C(=O)N[C@@H](CC1CCNCC1)C(=O)NCC(=O)N1[C@H](C(=O)N[C@@H](Cc2ccc(Br)cc2)C(=O)N2CCC[C@H]2C(=O)N[C@H](Cc2ccc(OCc3ccccc3)cc2)C(=O)O)C[C@@H]2CCCC[C@@H]21 [Example 22] ({Malonyl(2,2-Me2,histaminyl)}-[dR]Q[hArg]P[dR]L[Aib]H[Ala(piperidin-4-yl)]G[Oic][Phe(4-Br)]P[dY](Bn)-OH) | 98.1% | 7.94 nM | > 10000 nM |  | 
CC(C)C[C@H](NC(=O)[C@@H](CCCNC(=N)N)NC(=O)[C@@H]1CCCN1C(=O)[C@H](CCCCNC(=N)N)NC(=O)[C@H](CCC(N)=O)NC(=O)[C@@H](CCCNC(=N)N)NC(=O)C(C)(C)C(=O)NCCc1c[nH]cn1)C(=O)NC(C)(C)C(=O)N[C@@H](Cc1c[nH]cn1)C(=O)N[C@@H](CC1CCNCC1)C(=O)NCC(=O)N1[C@H](C(=O)N[C@@H](Cc2ccc(Br)cc2)C(=O)N2CCC[C@H]2C(=O)N[C@H](Cc2ccc3ccccc3c2)C(=O)O)C[C@@H]2CCCC[C@@H]21 [Example 23] ({Malonyl(2,2-Me2,histaminyl)}-[dR]Q[hArg]P[dR]L[Aib]H[Ala(piperidin-4-yl)]G[Oic][Phe(4-Br)]P[d2Nal]-OH) |  |  | > 10000 nM | 43.4% | 25.1 nM
CC(C)C[C@H](NC(=O)[C@@H](CCCNC(=N)N)NC(=O)[C@@H]1CCCN1C(=O)[C@H](CCCCNC(=N)N)NC(=O)[C@H](CCC(N)=O)NC(=O)[C@@H](CCCNC(=N)N)NC(=O)C(C)(C)C(=O)NCCc1c[nH]cn1)C(=O)NC(C)(C)C(=O)N[C@@H](Cc1c[nH]cn1)C(=O)N[C@@H](CC1CCNCC1)C(=O)NCC(=O)N1[C@H](C(=O)N[C@@H](Cc2ccc(Br)cc2)C(=O)N2CCC[C@H]2C(=O)N[C@H](CC2CCCCC2)C(=O)O)C[C@@H]2CCCC[C@@H]21 [Example 24] ({Malonyl(2,2-Me2,histaminyl)}-[dR]Q[hArg]P[dR]L[Aib]H[Ala(piperidin-4-yl)]G[Oic][Phe(4-Br)]P[dCha]-OH) |  |  | > 10000 nM | 87.9% | 31.6 nM
CC(C)C[C@H](NC(=O)[C@H](CCCNC(=N)N)NC(=O)[C@@H]1CCCN1C(=O)[C@@H](CCCNC(=N)N)NC(=O)[C@H](CCC(N)=O)NC(=O)[C@@H](CCCNC(=N)N)NC(=O)C(C)(C)C(=O)NCCc1c[nH]cn1)C(=O)NC(C)(C)C(=O)N[C@@H](Cc1c[nH]cn1)C(=O)N[C@@H](CC1CCNCC1)C(=O)NCC(=O)N1[C@H](C(=O)N[C@@H](Cc2ccc(Br)cc2)C(=O)N2CCC[C@H]2C(=O)N[C@H](Cc2ccc(-c3ccccc3)cc2)C(=O)O)C[C@@H]2CCCC[C@@H]21 [Example 25] ({Malonyl(2,2-Me2,histaminyl)}-[dR]Q[dR]PRL[Aib]H[Ala(piperidin-4-yl)]G[Oic][Phe(4-Br)]P[dBip]-OH) | 92.7% | 15.8 nM | > 10000 nM |  | 
CC(C)C[C@H](NC(=O)[C@@H](CCCNC(=N)N)NC(=O)[C@@H]1CCCN1C(=O)[C@H](CCCCNC(=N)N)NC(=O)[C@H](CCC(N)=O)NC(=O)[C@@H](CCCNC(=N)N)NC(=O)C(C)(C)C(=O)NCc1c[nH]cn1)C(=O)NC(C)(C)C(=O)N[C@@H](Cc1c[nH]cn1)C(=O)N[C@@H](CC1CCNCC1)C(=O)NCC(=O)N1[C@H](C(=O)N[C@@H](Cc2ccc(Br)cc2)C(=O)N2CCC[C@H]2C(=O)N[C@H](Cc2ccc(-c3ccccc3)cc2)C(=O)O)C[C@@H]2CCCC[C@@H]21 [Example 27] (X5-[dR]Q[hArg]P[dR]L[Aib]H[Ala(piperidin-4-yl)]G[Oic][Phe(4-Br)]P[dBip]-OH) |  |  | > 10000 nM | 66.1% | 6.31 nM
CC(C)C[C@H](NC(=O)[C@@H](CCCNC(=N)N)NC(=O)[C@@H]1CCCN1C(=O)[C@H](CCCCNC(=N)N)NC(=O)[C@H](CCC(N)=O)NC(=O)[C@@H](CCCNC(=N)N)NC(=O)C(C)(C)C(=O)NCCc1cnc[nH]1)C(=O)NC(C)(C)C(=O)N[C@@H](Cn1ccnc1)C(=O)N[C@@H](CC1CCNCC1)C(=O)NCC(=O)N1[C@H](C(=O)N[C@@H](Cc2ccc(Br)cc2)C(=O)N2CCC[C@H]2C(=O)N[C@H](Cc2ccc(-c3ccccc3)cc2)C(=O)O)C[C@@H]2CCCC[C@@H]21 [Example 28] ({Malonyl(2,2-Me2,histaminyl)}-[dR]Q[hArg]P[dR]L[Aib][Ala(1-imidazolyl)][Ala(piperidin-4-yl)]G[Oic][Phe(4-Br)]P[dBip]-OH) | 27.4% | 15.8 nM | > 10000 nM |  | 
